{"source": "patent US20130184316A1", "about": "“METHODS FOR DIAGNOSING AND TREATING CONCUSSIVE DISORDERS” (priority 2010, published 2013)", "type_in_all_cases": "in vivo, human", "key": {"subject with PCS [1]": {"tested_on": "subject with PCS", "test": "Neuro-optometric evaluation", "conditions": "following treatment of 4AP"}, "subject with PCS [2]": {"tested_on": "subject with PCS", "test": "PCS Symptom Cluster Scale, weighted point system", "set-up": "key to Raw score: Vertigo / Raw score: Persistence or perseveration of proprioceptive sensations (e.g., feeling motion after coming to rest) / Raw score: Diplopia / Raw score: Impairment of gait: 0 never, 1 sometimes, 2 often, 3 always/nearly always present; key to Weighted Score: Vertigo / Weighted Score: Insomnia / Weighted Score: Difficulty in standing for more than 5 minutes: raw frequency score (0-3) multiplied by weight factor", "conditions": "after therapy with 4-AP", "description": "In one embodiment, a point system is presented in which symptoms from each cluster are further assigned a point value. The evaluation should rate the frequency of each symptom over the span of about one week prior to the assessment, according to the following scale: 0—Never present, 1—Sometimes present, 2—Often present, 3—Always or Nearly always present. In this context, occurrence of a symptom from about 1 to 5 times per week would classify as sometimes present, occurrence from about 5 to about 10 times per week would classify as often present, and occurrence about 10 or more times per week would classify as always or nearly always present. The rating number for each item should be recorded as the raw score. Each raw score should then be multiplied by the weight factor to obtain the weighted score.\nTo achieve this goal, a point system was applied to discrete symptoms within symptom Clusters to specifically define a class of PCS patient that will be likely to benefit from treatment from 4-AP. According to the weighted point system, symptoms from each cluster are further assigned a point value. The frequency of each symptom over the span of about one week prior to the assessment was rated according to the following scale: 0—Never present, 1—Sometimes present, 2—Often present, 3—Always or Nearly always present. The rating number for each item was recorded as the raw score, and the raw score was then multiplied by the weight factor to obtain the weighted score."}, "subject with PCS [3]": {"tested_on": "subject with PCS", "test": "Empiric clinical trial of 4AP, reported symptoms and side effects", "description": "The study Subject had persisting stress-induced episodes of weakness and dysequilibrium, along with DBN. A crude phenomenological similarity of these symptoms to EA2 was noted. DNA sequencing of Subject's CACNA1A gene was done; no abnormality was found. Given intractable, persisting, and incapacitating nature of Subject's symptoms and the absence of any therapeutic alternatives, an empiric clinical trial of 4AP was agreed upon. Given subject's history of nephrolithiasis, it was felt that 4AP would be less likely to cause significant adverse reactions than acetazolamide. Subject provided written informed consent.\nThe Subject was treated by oral administration of 4-AP, starting with a minimal dose of 5 mg. […] Treatment continued for about six months, at which point a wash-out period was initiated.\nSide effects (initial blurring of vision, insomnia, and dyspepsia) were mild. Given these clinical results, a prospective, double blind case study was performed."}, "[4]": {"conditions": "Cluster A, raw score x weight 1, prior to therapy 3"}, "[5]": {"conditions": "Cluster A, raw score x weight 3, prior to therapy 6"}, "[6]": {"conditions": "Cluster B, raw score x weight 4, prior to therapy 8"}, "[7]": {"conditions": "Cluster C, raw score x weight 2, prior to therapy 2"}, "[8]": {"conditions": "Cluster C, raw score x weight 3, prior to therapy 9"}}, "data": [{"smiles": "Nc1ccncc1", "note": "[4-AP, 4-Amino pyridine]", "values": [{"measurement": "Overall neuro-optometric functioning", "setting": "subject with PCS [1]", "value": "unexpectedly improved"}, {"measurement": "Raw score: Difficulty in standing for more than 5 minutes", "setting": "subject with PCS [2]; Cluster A, prior to therapy 0", "value": 0}, {"measurement": "Raw score: Difficulty moving body position (e.g., from chair to bed or toilet)", "setting": "subject with PCS [2]; Cluster A, prior to therapy 1", "value": 0}, {"measurement": "Raw score: Difficulty maintaining balance while looking over shoulder", "setting": "subject with PCS [2]; Cluster A, prior to therapy 2", "value": 0}, {"measurement": "Raw score: Difficulty rising unaided from a sitting position or from sitting on the floor", "setting": "subject with PCS [2]; Cluster A, prior to therapy 2", "value": 0}, {"measurement": "Raw score: Impairment of gait", "setting": "subject with PCS [2]; Cluster A, prior to therapy 2", "value": 0}, {"measurement": "Raw score: Inability to maintain stability while standing with eyes closed or with feet together", "setting": "subject with PCS [2]; Cluster A, prior to therapy 2", "value": "1 (Sometimes present)"}, {"measurement": "Raw score: Difficulty conversing while walking", "setting": "subject with PCS [2]; Cluster A, prior to therapy 3", "value": "1 (Sometimes present)"}, {"measurement": "Raw score: Difficulty tossing objects from hand to hand while walking", "setting": "subject with PCS [2]; Cluster A, prior to therapy 3", "value": "1 (Sometimes present)"}, {"measurement": "Raw score: Inability to maintain heel-to-toe gait", "setting": "subject with PCS [2]; Cluster A, prior to therapy 3", "value": "1 (Sometimes present)"}, {"measurement": "Weighted Score: Difficulty moving body position (e.g., from chair to bed or toilet)", "setting": "subject with PCS [2]; Cluster A, raw score x weight 1, prior to therapy 1", "value": 0}, {"measurement": "Weighted Score: Difficulty rising unaided from a sitting position or from sitting on the floor", "setting": "subject with PCS [2]; Cluster A, raw score x weight 1, prior to therapy 2", "value": 0}, {"measurement": "Weighted Score: Difficulty tossing objects from hand to hand while walking", "setting": "subject with PCS [2]; [4]", "value": 1}, {"measurement": "Weighted Score: Inability to maintain heel-to-toe gait", "setting": "subject with PCS [2]; [4]", "value": 1}, {"measurement": "Weighted Score: Difficulty in standing for more than 5 minutes", "setting": "subject with PCS [2]; Cluster A, raw score x weight 2, prior to therapy 0", "value": 0}, {"measurement": "Weighted Score: Difficulty maintaining balance while looking over shoulder", "setting": "subject with PCS [2]; Cluster A, raw score x weight 2, prior to therapy 4", "value": 0}, {"measurement": "Weighted Score: Impairment of gait", "setting": "subject with PCS [2]; [5]", "value": 0}, {"measurement": "Weighted Score: Inability to maintain stability while standing with eyes closed or with feet together", "setting": "subject with PCS [2]; [5]", "value": 3}, {"measurement": "Weighted Score: Difficulty conversing while walking", "setting": "subject with PCS [2]; Cluster A, raw score x weight 3, prior to therapy 9", "value": 3}, {"measurement": "Raw score: Oscillopsia (perception of stationary objects moving)", "setting": "subject with PCS [2]; Cluster B, prior to therapy 2", "value": 0}, {"measurement": "Raw score: Persistence or perseveration of proprioceptive sensations (e.g., feeling motion after coming to rest)", "setting": "subject with PCS [2]; Cluster B, prior to therapy 2", "value": 0}, {"measurement": "Raw score: Persistent sensation of walking on soft or moving surface", "setting": "subject with PCS [2]; Cluster B, prior to therapy 2", "value": 0}, {"measurement": "Raw score: Vertigo", "setting": "subject with PCS [2]; Cluster B, prior to therapy 2", "value": 0}, {"measurement": "Raw score: Vestibular seizures", "setting": "subject with PCS [2]; Cluster B, prior to therapy 2", "value": 0}, {"measurement": "Raw score: Persistent sensation of being off-balance or tilted", "setting": "subject with PCS [2]; Cluster B, prior to therapy 3", "value": "1 (Sometimes present)"}, {"measurement": "Weighted Score: Vertigo", "setting": "subject with PCS [2]; Cluster B, raw score x weight 2, prior to therapy 6", "value": 0}, {"measurement": "Weighted Score: Persistent sensation of walking on soft or moving surface", "setting": "subject with PCS [2]; Cluster B, raw score x weight 3, prior to therapy 6", "value": 0}, {"measurement": "Weighted Score: Oscillopsia (perception of stationary objects moving)", "setting": "subject with PCS [2]; [6]", "value": 0}, {"measurement": "Weighted Score: Persistence or perseveration of proprioceptive sensations (e.g., feeling motion after coming to rest)", "setting": "subject with PCS [2]; [6]", "value": 0}, {"measurement": "Weighted Score: Persistent sensation of being off-balance or tilted", "setting": "subject with PCS [2]; Cluster B, raw score x weight 4, prior to therapy 12", "value": 4}, {"measurement": "Weighted Score: Vestibular seizures", "setting": "subject with PCS [2]; Cluster B, raw score x weight 5, prior to therapy 10", "value": 0}, {"measurement": "Raw score: Apathy, listlessness, blunting of affect", "setting": "subject with PCS [2]; Cluster C, prior to therapy 1", "value": 0}, {"measurement": "Raw score: Emotional lability or exaggerated emotions", "setting": "subject with PCS [2]; Cluster C, prior to therapy 1", "value": 0}, {"measurement": "Raw score: Persistent or frequent irritability", "setting": "subject with PCS [2]; Cluster C, prior to therapy 1", "value": 0}, {"measurement": "Raw score: Persisting difficulty with registration or retention of newly presented information in any modality", "setting": "subject with PCS [2]; Cluster C, prior to therapy 2", "value": "1 (Sometimes present)"}, {"measurement": "Raw score: Inability to perform two simple tasks concurrently (multitasking)", "setting": "subject with PCS [2]; Cluster C, prior to therapy 3", "value": "1 (Sometimes present)"}, {"measurement": "Raw score: Inability to tolerate distraction (e.g., inability to complete simple task or resume conversation after interruption)", "setting": "subject with PCS [2]; Cluster C, prior to therapy 3", "value": "1 (Sometimes present)"}, {"measurement": "Raw score: Intolerance of noise, light, or commotion", "setting": "subject with PCS [2]; Cluster C, prior to therapy 3", "value": "1 (Sometimes present)"}, {"measurement": "Raw score: Slowed speed of mental processing or responding", "setting": "subject with PCS [2]; Cluster C, prior to therapy 3", "value": 0}, {"measurement": "Weighted Score: Apathy, listlessness, blunting of affect", "setting": "subject with PCS [2]; [7]", "value": 0}, {"measurement": "Weighted Score: Emotional lability or exaggerated emotions", "setting": "subject with PCS [2]; [7]", "value": 0}, {"measurement": "Weighted Score: Persistent or frequent irritability", "setting": "subject with PCS [2]; [7]", "value": 0}, {"measurement": "Weighted Score: Persisting difficulty with registration or retention of newly presented information in any modality", "setting": "subject with PCS [2]; Cluster C, raw score x weight 2, prior to therapy 4", "value": 2}, {"measurement": "Weighted Score: Slowed speed of mental processing or responding", "setting": "subject with PCS [2]; Cluster C, raw score x weight 2, prior to therapy 6", "value": 0}, {"measurement": "Weighted Score: Inability to perform two simple tasks concurrently (multitasking)", "setting": "subject with PCS [2]; [8]", "value": 3}, {"measurement": "Weighted Score: Inability to tolerate distraction (e.g., inability to complete simple task or resume conversation after interruption)", "setting": "subject with PCS [2]; [8]", "value": 3}, {"measurement": "Weighted Score: Intolerance of noise, light, or commotion", "setting": "subject with PCS [2]; Cluster C, raw score x weight 4, prior to therapy 12", "value": 4}, {"measurement": "Raw score: Diplopia", "setting": "subject with PCS [2]; Cluster D, prior to therapy 0", "value": 0}, {"measurement": "Raw score: Headache", "setting": "subject with PCS [2]; Cluster D, prior to therapy 1", "value": "2 (Often present)"}, {"measurement": "Raw score: Nystagmus", "setting": "subject with PCS [2]; Cluster D, prior to therapy 1", "value": 0}, {"measurement": "Raw score: Anergy, chronic fatigue, hypersomnia", "setting": "subject with PCS [2]; Cluster D, prior to therapy 2", "value": 0}, {"measurement": "Raw score: Insomnia", "setting": "subject with PCS [2]; Cluster D, prior to therapy 2", "value": "2 (Often present)"}, {"measurement": "Raw score: Difficulty in accommodation or focus", "setting": "subject with PCS [2]; Cluster D, prior to therapy 3", "value": "1 (Sometimes present)"}, {"measurement": "Raw score: Impairment of tracking an object in motion", "setting": "subject with PCS [2]; Cluster D, prior to therapy 3", "value": 0}, {"measurement": "Weighted Score: Insomnia", "setting": "subject with PCS [2]; Cluster D, raw score x weight 1, prior to therapy 2", "value": 2}, {"measurement": "Weighted Score: Diplopia", "setting": "subject with PCS [2]; Cluster D, raw score x weight 2, prior to therapy 0", "value": 0}, {"measurement": "Weighted Score: Headache", "setting": "subject with PCS [2]; Cluster D, raw score x weight 2, prior to therapy 2", "value": 4}, {"measurement": "Weighted Score: Anergy, chronic fatigue, hypersomnia", "setting": "subject with PCS [2]; Cluster D, raw score x weight 3, prior to therapy 6", "value": 0}, {"measurement": "Weighted Score: Difficulty in accommodation or focus", "setting": "subject with PCS [2]; Cluster D, raw score x weight 3, prior to therapy 9", "value": 3}, {"measurement": "Weighted Score: Nystagmus", "setting": "subject with PCS [2]; Cluster D, raw score x weight 4, prior to therapy 4", "value": 0}, {"measurement": "Weighted Score: Impairment of tracking an object in motion", "setting": "subject with PCS [2]; Cluster D, raw score x weight 4, prior to therapy 12", "value": 0}, {"measurement": "Total weighted score of symptoms", "setting": "subject with PCS [2]; prior to therapy 165", "value": 33, "unit": "points"}, {"measurement": "Side effects (initial blurring of vision, insomnia, and dyspepsia)", "setting": "subject with PCS [3]; 10 mg twice daily", "value": "mild"}, {"measurement": "Symptoms reported by the Subject", "setting": "subject with PCS [3]; 10 mg twice daily", "value": "significant reduction in all symptoms"}, {"measurement": "Symptoms reported by the Subject", "setting": "subject with PCS [3]; oral, doses increased to 30 mg per day, lasted for the duration of treatment (about six months)", "value": "dramatic improvement in symptoms"}, {"measurement": "Adverse effects observed or reported within 3 hours of administration", "setting": "subject with PCS [3]; oral, minimal starting dose of 5 mg", "value": "No visible adverse effects"}, {"measurement": "Symptom intensity after termination of 4-AP treatment", "setting": "subject with PCS [3]; wash-out after about six months of treatment", "value": "rapid relapse of symptom intensity"}]}]}
